Experimental data as given in ChEMBL document CHEMBL1156748, “Incorporation of water-solubilizing groups in pyrazolopyrimidine mTOR inhibitors: discovery of highly potent and selective analogs with improved human microsomal stability” (Bioorg Med Chem Lett, 2009).
Activity calls are given as the source filed them. The rule behind the calls is not given here.

Experiments:
[1] = Antiproliferative activity against PTEN deficient human MDA468 cells after 3 days by MTS assay; type: functional, cell-based; conditions: MDA-MB-468, 72 h
[2] = test system: LNCaP; assay: Antiproliferative activity against PTEN deficient human LNCAP cells after 3 days by MTS assay; type: functional, cell-based; conditions: 72 h
[3] = Selectivity ratio, IC50 for PI3Kalpha to IC50 for human FLAG-tagged mTOR
[4] = target: Serine/threonine-protein kinase mTOR (Homo sapiens, UniProt P42345); assay: Inhibition of human FLAG-tagged mTOR expressed in HEK293 cells after 2 hrs by DELFIA; type: cell-based
[5] = Metabolic stability in human microsomes assessed as half life; type: ADME, Microsome
[6] = target: Phosphatidylinositol 4,5-bisphosphate 3-kinase catalytic subunit alpha isoform (Homo sapiens, UniProt P42336); assay: Binding affinity to PI3Kalpha by fluorescence polarization assay
Chain of Phosphatidylinositol 4,5-bisphosphate 3-kinase catalytic subunit alpha isoform (P42336 whole entry, canonical isoform): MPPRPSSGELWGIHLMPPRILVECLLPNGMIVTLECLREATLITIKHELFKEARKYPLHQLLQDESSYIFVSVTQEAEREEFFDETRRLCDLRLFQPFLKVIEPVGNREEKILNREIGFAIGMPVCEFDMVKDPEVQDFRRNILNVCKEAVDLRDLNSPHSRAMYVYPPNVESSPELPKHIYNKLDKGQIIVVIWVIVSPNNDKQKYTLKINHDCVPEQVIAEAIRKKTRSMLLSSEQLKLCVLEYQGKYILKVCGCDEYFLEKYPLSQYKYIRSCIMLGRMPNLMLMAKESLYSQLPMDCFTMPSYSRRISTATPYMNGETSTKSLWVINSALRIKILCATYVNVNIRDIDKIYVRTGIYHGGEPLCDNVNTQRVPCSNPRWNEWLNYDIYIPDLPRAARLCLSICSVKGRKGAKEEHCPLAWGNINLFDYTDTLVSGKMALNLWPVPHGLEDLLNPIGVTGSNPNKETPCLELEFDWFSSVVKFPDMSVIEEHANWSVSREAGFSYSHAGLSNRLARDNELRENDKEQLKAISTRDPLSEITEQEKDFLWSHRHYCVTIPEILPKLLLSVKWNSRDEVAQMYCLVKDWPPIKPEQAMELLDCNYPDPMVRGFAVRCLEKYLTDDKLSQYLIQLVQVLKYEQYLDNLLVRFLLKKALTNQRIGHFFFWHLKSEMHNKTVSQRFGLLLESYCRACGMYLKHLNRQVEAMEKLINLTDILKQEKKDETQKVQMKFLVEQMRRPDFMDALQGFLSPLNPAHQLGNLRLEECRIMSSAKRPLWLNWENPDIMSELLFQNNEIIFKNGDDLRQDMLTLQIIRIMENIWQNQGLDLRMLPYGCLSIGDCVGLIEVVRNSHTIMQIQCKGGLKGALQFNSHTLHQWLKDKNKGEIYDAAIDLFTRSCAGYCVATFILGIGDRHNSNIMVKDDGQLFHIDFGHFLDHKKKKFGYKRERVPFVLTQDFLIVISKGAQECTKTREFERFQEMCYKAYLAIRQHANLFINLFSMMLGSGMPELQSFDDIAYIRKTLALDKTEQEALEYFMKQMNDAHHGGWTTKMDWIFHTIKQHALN

[7] = Solubility at pH 3; type: physicochemical; conditions: buffer
[8] = target: Phosphatidylinositol 4,5-bisphosphate 3-kinase catalytic subunit beta isoform (Homo sapiens, UniProt P42338); assay: Inhibition of PI3Kbeta
Chain of Phosphatidylinositol 4,5-bisphosphate 3-kinase catalytic subunit beta isoform (P42338 whole entry, canonical isoform): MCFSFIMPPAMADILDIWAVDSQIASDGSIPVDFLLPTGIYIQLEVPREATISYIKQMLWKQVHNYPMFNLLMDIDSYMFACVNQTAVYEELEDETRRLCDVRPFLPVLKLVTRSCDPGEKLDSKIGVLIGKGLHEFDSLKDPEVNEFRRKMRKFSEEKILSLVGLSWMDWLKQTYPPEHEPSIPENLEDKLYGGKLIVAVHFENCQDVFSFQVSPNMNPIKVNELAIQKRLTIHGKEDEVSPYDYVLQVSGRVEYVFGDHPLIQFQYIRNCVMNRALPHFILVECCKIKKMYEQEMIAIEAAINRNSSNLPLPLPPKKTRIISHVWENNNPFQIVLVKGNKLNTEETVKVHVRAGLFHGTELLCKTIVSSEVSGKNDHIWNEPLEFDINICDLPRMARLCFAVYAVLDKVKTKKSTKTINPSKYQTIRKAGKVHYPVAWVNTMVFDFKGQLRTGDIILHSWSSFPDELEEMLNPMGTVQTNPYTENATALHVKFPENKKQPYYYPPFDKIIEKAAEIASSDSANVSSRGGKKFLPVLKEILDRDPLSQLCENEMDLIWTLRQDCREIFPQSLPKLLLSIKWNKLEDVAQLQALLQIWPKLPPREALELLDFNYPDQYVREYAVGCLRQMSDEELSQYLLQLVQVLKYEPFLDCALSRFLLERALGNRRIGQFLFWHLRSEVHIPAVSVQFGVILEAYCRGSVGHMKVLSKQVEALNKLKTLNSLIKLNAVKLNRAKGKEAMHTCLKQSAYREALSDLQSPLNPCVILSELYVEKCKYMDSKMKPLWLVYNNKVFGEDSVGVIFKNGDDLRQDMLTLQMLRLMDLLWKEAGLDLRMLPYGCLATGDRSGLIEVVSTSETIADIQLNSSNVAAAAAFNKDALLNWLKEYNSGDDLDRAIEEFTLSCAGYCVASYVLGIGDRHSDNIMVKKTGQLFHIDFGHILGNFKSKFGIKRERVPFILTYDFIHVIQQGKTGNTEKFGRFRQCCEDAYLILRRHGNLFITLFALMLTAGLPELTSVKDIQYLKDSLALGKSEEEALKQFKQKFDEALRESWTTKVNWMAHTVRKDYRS

[9] = target: Phosphatidylinositol 4,5-bisphosphate 3-kinase catalytic subunit gamma isoform (Homo sapiens, UniProt P48736); assay: Inhibition of PI3Kgamma
Chain of Phosphatidylinositol 4,5-bisphosphate 3-kinase catalytic subunit gamma isoform (P48736 whole entry, canonical isoform): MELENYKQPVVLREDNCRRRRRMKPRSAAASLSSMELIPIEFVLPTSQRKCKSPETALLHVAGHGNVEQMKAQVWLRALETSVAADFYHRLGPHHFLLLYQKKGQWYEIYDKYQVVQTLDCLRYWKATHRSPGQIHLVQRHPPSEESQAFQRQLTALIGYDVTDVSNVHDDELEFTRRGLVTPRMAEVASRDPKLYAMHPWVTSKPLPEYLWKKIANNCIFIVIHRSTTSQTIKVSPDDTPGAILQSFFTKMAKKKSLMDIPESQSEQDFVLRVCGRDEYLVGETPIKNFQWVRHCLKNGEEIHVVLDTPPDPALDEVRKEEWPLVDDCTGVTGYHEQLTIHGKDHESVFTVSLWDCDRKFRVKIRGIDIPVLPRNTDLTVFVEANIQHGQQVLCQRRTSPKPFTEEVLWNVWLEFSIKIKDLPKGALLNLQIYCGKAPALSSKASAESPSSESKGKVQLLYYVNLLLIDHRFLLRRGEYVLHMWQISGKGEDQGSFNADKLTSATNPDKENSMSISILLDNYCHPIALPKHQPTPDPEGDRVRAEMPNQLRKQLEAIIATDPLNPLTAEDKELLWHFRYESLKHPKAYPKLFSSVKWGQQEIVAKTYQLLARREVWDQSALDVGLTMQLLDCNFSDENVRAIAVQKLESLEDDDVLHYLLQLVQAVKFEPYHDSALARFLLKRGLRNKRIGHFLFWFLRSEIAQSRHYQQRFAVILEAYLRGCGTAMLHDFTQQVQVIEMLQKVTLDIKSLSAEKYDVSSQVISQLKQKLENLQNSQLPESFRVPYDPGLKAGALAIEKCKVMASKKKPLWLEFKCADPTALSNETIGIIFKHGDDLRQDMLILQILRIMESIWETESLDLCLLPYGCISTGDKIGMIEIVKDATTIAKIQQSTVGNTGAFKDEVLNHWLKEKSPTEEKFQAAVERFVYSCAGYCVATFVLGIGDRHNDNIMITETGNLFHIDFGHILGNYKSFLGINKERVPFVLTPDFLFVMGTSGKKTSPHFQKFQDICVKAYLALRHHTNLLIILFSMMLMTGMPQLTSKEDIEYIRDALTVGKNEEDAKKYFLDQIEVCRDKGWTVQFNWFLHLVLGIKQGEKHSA

[10] = Clearance in nude mouse at 5 mg/kg, iv; type: ADME, organism-based; set-up: dose 5 mg/kg, route intravenous; conditions: in vivo
[11] = Volume of distribution at steady state in nude mouse at 5 mg/kg, iv; type: ADME, organism-based; set-up: dose 5 mg/kg, route intravenous; conditions: in vivo, read-out: Vdss
[12] = Half life in nude mouse at 5 mg/kg, iv; type: ADME, organism-based; set-up: dose 5 mg/kg, route intravenous; conditions: in vivo
[13] = Plasma concentration in nude mouse at 25 mg/kg, iv after 8 hrs; type: ADME, organism-based; set-up: dose 25 mg/kg, route intravenous
[14] = AUC in nude mouse at 5 mg/kg, iv; type: ADME, organism-based; set-up: dose 5 mg/kg, route intravenous; conditions: plasma
[15] = test system: MDA-MB-361; assay: Antitumor activity against human MDA-MB-361 cells xenografted in nude mouse assessed as inhibition of tumor growth at 20 mg/kg, iv every 5 days for 21 days; type: functional, organism-based; set-up: dose 20 mg/kg
[16] = Metabolic stability in mouse microsomes assessed as half life; type: ADME, Microsome
[17] = test system: Mus musculus; assay: Inhibition of TORC1 in human MDA-MB-361 cells xenografted nude mouse assessed as p70-S6K level at 25 mg/kg, iv; type: functional, organism-based; set-up: dose 25 mg/kg
[18] = test system: Mus musculus; assay: Inhibition of TORC2 in human MDA-MB-361 cells xenografted nude mouse assessed as p-AKT S473 level at 25 mg/kg, iv; type: functional, organism-based; set-up: dose 25 mg/kg
[19] = test system: Mus musculus; assay: Antitumor activity against human MDA-MB-361 cells xenografted in nude mouse assessed as inhibition of tumor growth at 10 to 25 mg/kg, iv administered daily; type: functional, organism-based
[20] = test system: Mus musculus; assay: Toxicity in nude mouse xenografted with human MDA-MB-361 cells at 10 to 25 mg/kg, iv administered daily; type: organism-based; set-up: dose 10-25 mg/kg, route intravenous; conditions: in vivo
[21] = test system: MDA-MB-361; assay: Inhibition of mTORC2 in human MDA-MB-361 cells assessed as phosphorylated AKT S473 level at 25 nM

Structure (SMILES) | IC50 [2] [nM] | Ratio IC50 [3] | IC50 [4] [nM] | half-life [5] [min] | IC50 [6] [nM] | IC50 [1] [nM] | other results
CCn1ncc2c(N3CC4CCC(C3)O4)nc(-c3ccc(NC(=O)Nc4ccc(NC)nc4)cc3)nc21 | 17 | 302 | – | – | – | 200 | –
CCNC(=O)Nc1ccc(-c2nc(N3CC4CCC(C3)O4)c3cnn(CC)c3n2)cc1 | 16 | 2230 | 0.6 | – | – | 80 | –
CCn1ncc2c(N3CC4CCC(C3)O4)nc(-c3ccc(NC(=O)Nc4ccc(N(C)CCN(C)C)cc4)cc3)nc21 | 0.8 | 295 | 0.9 | 14 | 256 | 0.8 | –
CCn1ncc2c(N3CC4CCC(C3)O4)nc(-c3ccc(NC(=O)Nc4ccc(NCCN(C)C)cc4)cc3)nc21 | 2.8 | 122 | 1.7 | 14 | 207 | 7 | –
CCn1ncc2c(N3CC4CCC(C3)O4)nc(-c3ccc(NC(=O)Nc4ccccc4)cc3)nc21 | 0.8 | 212 | – | 5 | 66 | 12 | –
CN(C)CCn1ncc2c(N3CC4CCC(C3)O4)nc(-c3ccc(NC(=O)Nc4cccnc4)cc3)nc21 | 50 | 89 | – | – | – | 220 | –
CCNC(=O)Nc1ccc(-c2nc(N3CC4CCC(C3)O4)c3cnn(CCN(C)C)c3n2)cc1 | 280 | 240 | – | – | – | 1800 | –
CCn1ncc2c(N3CC4CCC(C3)O4)nc(-c3ccc(NC(=O)Nc4ccc(N5CCOCC5)nc4)cc3)nc21 | 0.8 | 7300 | 0.3 | – | – | 8 | –
CCn1ncc2c(N3CC4CCC(C3)O4)nc(-c3ccc(NC(=O)Nc4ccc(CN)cc4)cc3)nc21 | < 0.8 | 95 | 0.2 | > 30 | 21 | < 0.8 | –
CCn1ncc2c(N3CC4CCC(C3)O4)nc(-c3ccc(NC(=O)Nc4ccc(N5CCCC5)cc4)cc3)nc21 | 55 | 243 | – | 5 | – | 120 | –
CCn1ncc2c(N3CC4CCC(C3)O4)nc(-c3ccc(NC(=O)Nc4ccc(N(C)C)nc4)cc3)nc21 | 6 | 282 | – | – | 282 | 80 | –
CCn1ncc2c(N3CC4CCC(C3)O4)nc(-c3ccc(NC(=O)NCCN(C)C)cc3)nc21 | 350 | 16 | 51 | – | – | 1250 | –
CCn1ncc2c(N3CC4CCC(C3)O4)nc(-c3ccc(NC(=O)Nc4ccc(CN(C)C)cc4)cc3)nc21 | 7 | 239 | 1.1 | 29 | 263 | 30 | –

Now from value to molecule, other results behind:

IC50 [2] [nM] | Ratio IC50 [3] | IC50 [4] [nM] | half-life [5] [min] | IC50 [6] [nM] | Structure (SMILES) | IC50 [1] [nM] | other results
< 0.7 | 350 | 0.3 | 23 | – | CCn1ncc2c(N3CC4CCC(C3)O4)nc(-c3ccc(NC(=O)Nc4ccc(C(=O)NN(C)C)cc4)cc3)nc21 | < 0.7 | –
< 0.8 | 1120 | 0.1 | 4 | 148 | CCn1ncc2c(N3CC4CCC(C3)O4)nc(-c3ccc(NC(=O)Nc4cccnc4)cc3)nc21 | 1.2 | –
< 0.7 | 383 | 1 | – | – | CCn1ncc2c(N3CC4CCC(C3)O4)nc(-c3ccc(NC(=O)Nc4ccc(OCCN5CCOCC5)nc4)cc3)nc21 | 0.8 | solubility [7]: > 0.1 mg/mL
< 0.7 | 188 | 0.3 | > 30 | 51 | CCn1ncc2c(N3CC4CCC(C3)O4)nc(-c3ccc(NC(=O)Nc4ccc(N5CCN(C)CC5)cc4)cc3)nc21 | < 0.7 | –
< 0.7 | 172 | 0.8 | > 30 | 136 | CCn1ncc2c(N3CC4CCC(C3)O4)nc(-c3ccc(NC(=O)Nc4ccc(OCCN(C)C)cc4)cc3)nc21 | 8 | –
< 0.8 | 318 | 0.2 | – | 76 | O=C(Nc1ccc(-c2nc(N3CC4CCC(C3)O4)c3cnn(CC(F)(F)F)c3n2)cc1)Nc1ccc(N2CCNCC2)cc1 | 1 | –
< 0.8 | 237 | 0.6 | 24 | 150 | CN1CCN(c2ccc(NC(=O)Nc3ccc(-c4nc(N5CC6CCC(C5)O6)c5cnn(CC(F)(F)F)c5n4)cc3)cc2)CC1 | 1.5 | IC50 [8]: > 10000 nM; IC50 [9]: > 10000 nM; clearance [10]: 0.42 L/h/kg; Vd [11]: 1.2 L/kg; half-life [12]: 174 min; concentration at 8 h [13]: 2.5 µg/mL; AUC [14]: 12.5 µg·h/mL; Activity [15]: Active; half-life [16]: > 30 min; Activity [17]: Active; Activity [18]: Active; Activity [19]: Active; Activity [20]: Non-toxic; Activity [21]: Active
< 0.8 | 451 | 0.7 | > 30 | 320 | CCn1ncc2c(N3CC4CCC(C3)O4)nc(-c3ccc(NC(=O)Nc4ccc(CN5CCN(C)CC5)cc4)cc3)nc21 | 0.8 | –
< 0.7 | 570 | 0.1 | 10 | – | CCn1ncc2c(N3CC4CCC(C3)O4)nc(-c3ccc(NC(=O)Nc4ccc(CCO)cc4)cc3)nc21 | < 0.7 | –
< 0.7 | 275 | 0.7 | > 30 | – | CCn1ncc2c(N3CC4CCC(C3)O4)nc(-c3ccc(NC(=O)Nc4ccc(N5CCN(C)CC5)nc4)cc3)nc21 | 0.8 | solubility [7]: > 0.1 mg/mL
< 0.7 | 586 | 0.2 | > 30 | – | CCn1ncc2c(N3CC4CCC(C3)O4)nc(-c3ccc(NC(=O)Nc4ccc(C(=O)NN5CCCC5)cc4)cc3)nc21 | 4 | –
< 0.7 | 972 | 0.2 | 6 | – | CCn1ncc2c(N3CC4CCC(C3)O4)nc(-c3ccc(NC(=O)Nc4ccc(N5CCOCC5)cc4)cc3)nc21 | < 0.7 | –
< 0.7 | 335 | 0.1 | 11 | – | CCn1ncc2c(N3CC4CCC(C3)O4)nc(-c3ccc(NC(=O)Nc4ccc(CO)cc4)cc3)nc21 | < 0.7 | –
